Laboratory results taken from patent publication US20230329284A1, “BEE ANTIVIRAL COMPOSITIONS” (priority 2022, published 2023).

Tests used:
VDV = assay: Methyl jasmonate feeding of naturally VDV-infected adult honey bees, VDV load per bee by qPCR (ΔCq); type: in vivo; details: for decrease in VDV titers compared to control bees (sugar alone) / mean change in quantification cycle value of VDV per bee (ΔCq) / decrease in VDV titers compared to control bees / mean ΔCq of VDV per bee: FIG. 1; for decrease in VDV titers compared to control bees (sugar alone) / mean change in quantification cycle value of VDV per bee (ΔCq): day 7; for mean change in quantification cycle value of VDV per bee (ΔCq): control 3.9 (+/-3.5); for decrease in VDV titers compared to control bees / mean ΔCq of VDV per bee: day 12; for mean ΔCq of VDV per bee: control 7.8 ( +/- 2.8)
Protocol: The effect on viral load of methyl jasmonate (MeJA) treatment on virally-infected bees was tested after 7 days and after 12 days of feeding sugar or sugar + MeJA.
Adult honey bees were reared in cages and fed either sucrose solution, 100 ppm MeJA dissolved in sucrose solution, or 500 ppm of MeJA dissolved in sucrose solution. Bees’ genetic material was individually examined by qPCR for normalized VDV loads at 7 days and 12 days after the start of MeJA treatment. Standard box plots include a dotted line that represents the mean, and each point represents an individual bee from one of various cages per treatment. VDV was not administered artificially and is from a natural infection. Levels of DWV-A, a recombinant variant of VDV, were too low in the specimen for quantification. A higher Δ Cq indicates […] VDV present in the specimen. For Day 7,
A second efficiency test was performed where VDV-infected adult bees were fed 100 ppm of MeJA dissolved in sucrose solution. As a control, only sucrose solution was administered.

deformed wing virus = assay: Screen of plant compounds for effect on bee viral loads in live bees; type: in vivo, honey bee; details: for deformed wing virus levels (viral loads), dose response: FIG. 6; for antiviral activity in live bee trials: live bees exposed to natural products derived from plants
Protocol: A total of 140 compounds were screened for their effect on bee viral loads.
All compounds are selected from food-safe (GRAS, generally recognized as safe by the US FDA) libraries and were tested in live bees to assess adverse impacts to bee health. Trials were carried out using live bees exposed to natural products derived from plants. […] Thymol and octanoic acid blends are being tested to assess possible synergies prior to field trials.

[1] = tested on: Deformed wing virus (DWV); assay: Fluorescent determination of bee viral titers with nano-luciferase-expressing DWV construct; type: in vivo, bees; details: for Average Fluorescence, Average Counts: single treatment with 10^5 copies DWV, average of nine bees, DWV alone 111.366, PBS 1.687; for viral load of DWV-infected bees compared with DWV control: low, medium, or high doses
Protocol: A fluorescent assay was performed to determine the effects of different treatments on bee viral load.
Bees were treated once with different doses of methyl jasmonate while simultaneously receiving an effective does (10^5 copies) of Deformed wing virus (DWV). The methyl jasmonte was at low dose (MJL), medium dose (MJM), or high dose (MJH). Additional bees were treated with thymol solution in low dose (TL), medium dose (TM), and high dose (TH). The infective virus dose comprised a viral construct that expressed nano-luciferase, allowing direct quantification of viral loads via spectrophotometer. As a negative control, phosphate buffered saline (PBS) solution was used alone. As a positive control, bees were infected with 10^5 DWV alone. Measurements were repeated nine times in nine different bees, and an average calculated.

CC/C=C\CC1C(=O)CCC1CC(=O)OC (stereo not shown) [MeJA, Methyl jasmonate]
decrease in VDV titers compared to control bees (sugar alone) (VDV; sugar + 100 ppm MeJA): 11.5% | mean change in quantification cycle value of VDV per bee (ΔCq) (VDV; sugar + 100 ppm MeJA, higher ΔCq = more VDV): 3.45 (+/- 4.8) | decrease in VDV titers compared to control bees (sugar alone) (VDV; sugar + 500 ppm MeJA): 97.8% | mean change in quantification cycle value of VDV per bee (ΔCq) (VDV; sugar + 500 ppm MeJA): 0.085 (+/- 6.16) | decrease in VDV titers compared to control bees (VDV; sugar + 100 ppm MeJA): 33.3% | mean ΔCq of VDV per bee (VDV; sugar + 100 ppm MeJA): 5.2 ( +/- 4.9) | decrease in VDV titers compared to control bees (VDV; sugar + 500 ppm MeJA): 52.6% | mean ΔCq of VDV per bee (VDV; sugar + 500 ppm MeJA): 3.7 ( +/- 5.3) | decrease in VDV titers compared to bees fed sugar alone (using the mean) (VDV; FIG. 3, Day 7, sugar + 500 ppm MeJA): 7.1% | median Cq (VDV; FIG. 3, Day 7, sugar + 500 ppm MeJA, control 7.1): 6.1 | mean Cq (VDV; FIG. 3, Day 7, sugar + 500 ppm MeJA, spread 2.1, control 7.0): 6.5 | decrease in VDV titers compared to bees fed sugar alone (using the mean) (VDV; second efficiency test, FIG. 2, Day 7, sugar + 100 ppm MeJA): 21.9% | median ΔCq (VDV; second efficiency test, FIG. 2, Day 7, sugar + 100 ppm MeJA, control 4.17): 1.33 | mean ΔCq (VDV; second efficiency test, FIG. 2, Day 7, sugar + 100 ppm MeJA, std dev. 3.8, control 3.2): 2.5 | viral levels compared with bees fed sugar alone (VDV; treated for 12 days with sugar + MeJA): significantly lower viral levels | deformed wing virus levels (viral loads), dose response (deformed wing virus; higher levels, 1 mM or 10 mM): dose response in viral loads | antiviral activity in live bee trials (deformed wing virus): antiviral activity | Average Fluorescence, Average Counts ([1]; high dose): 68.246 | Average Fluorescence, Average Counts ([1]; low dose): 76.120 | viral load of DWV-infected bees compared with DWV control [1]: lower viral load | Average Fluorescence, Average Counts ([1]; medium dose): 83.905

COc1cc(/C=C/C(=O)O)ccc1O [ferulic acid, Ferulic acid]
deformed wing virus levels (viral loads), dose response (deformed wing virus; low levels, 0.1 mM): dose response in viral loads | antiviral activity in live bee trials (deformed wing virus): antiviral activity

CCCCCCCC(=O)O [octanoic acid]
deformed wing virus levels (viral loads), dose response (deformed wing virus; higher levels, 10 mM and 100 mM): dose response in viral loads | antiviral activity in live bee trials (deformed wing virus): antiviral activity

Cc1ccc(C(C)C)c(O)c1 [thymol, 2-isopropyl-5-methylphenol]
high-intensity infections (viral levels above threshold) (deformed wing virus; FIG. 5, across 3000 honey bee trials): quantitative reduction of high-intensity infections | antiviral activity in live bee trials (deformed wing virus): antiviral activity | Average Fluorescence, Average Counts ([1]; high dose): 63.290 | Average Fluorescence, Average Counts ([1]; low dose): 67.092 | viral load of DWV-infected bees compared with DWV control [1]: lower viral load | Average Fluorescence, Average Counts ([1]; medium dose): 72.992
